Results: a melting point compilation (Tetko et al.; mined from patent text by program, amines drawn as free bases though some values may be those of a salt)

| SMILES | melting point [°C] |
| --- | --- |
| COc1c(-c2ccccc2C)c(=O)[nH]c2ccccc12 | 208 to 210 |
| CCOC(=O)C1=C(C)NC(=S)N(C(=O)OCC)C1c1ccccc1OC (stereo not given) | 117 to 118 |
| CS(=O)(=O)Nc1cc(NC(=O)CCl)c([N+](=O)[O-])cc1Oc1ccccc1 | 194 to 195 |
| Cc1nc(-c2cccc(C(F)(F)F)c2)ccc1C=O | 61 to 63 |
| CC1(C)OC(=O)Nc2ccc(-c3cc(C#N)cc(C#N)c3)cc21 | 288 to 289 |
| CCOC(=O)c1c(N2CCN(C(=O)c3cccs3)CC2)c2cccnc2n(Cc2cccc(F)c2)c1=O | 105 to 110 |
| Cc1ccc(S(=O)(=O)ON=C2CC(c3ccccc3)Oc3ccccc32)cc1 (stereo not given) | 141 to 143 |
| O=S(=O)(CCCc1nc(-c2ccc(F)cc2)c(-c2ccncc2)[nH]1)c1ccccc1 | 109 to 110 |
| COCC1OC(n2cnc3c(N)ncnc32)C(O)C1O (stereo not given) | 112 to 114 |
| CCOCc1nc2c(c(C)c(C)n3nnnc23)n1CCNS(C)(=O)=O | 218 to 222 |
| CC(c1oc2ccc(F)cc2c(=O)c1-c1cccc(F)c1)n1cnc2c(N)ncnc21 (stereo not given) | 252 to 255 |
| Cc1ccc(Nc2nc(-c3ccc(OC(F)(F)F)cc3)cs2)nc1 | 205 to 207 |
| Clc1ccc(N2CCN3CCC2CC3)nn1 | 127 to 128 |
| O=[N+]([O-])c1ccc(-c2cccs2)c(-c2cccs2)c1 | 97 to 101 |
| CC(C)c1nc2c(nc1C(C)C)-c1c(c(-c3ccc(C(=O)O)cc3)cn1Cc1cccnc1)CC2 | 100 to 102 |
| CCCCC1(CC)CSc2ccccc2N(c2ccccc2)C1=O (stereo not given) | 90 |
| CCc1oc(-c2ccc(C(F)(F)F)cc2)cc1C=O | 95 to 96 |
| O=CNC1=CCc2ccccc21 | 87.5 to 88.5 |
| CC(=O)c1cc(C)cc(NC(=O)c2nnnn2Cc2ccccc2)c1O | 183 to 184 |
| OC[C@H](O)COc1nc(Oc2ccc(F)cc2F)nc2[nH]nc(-c3ccccc3Cl)c12 | 179 to 181 |
| CCCCCCc1ccc(CCc2cc3c(s2)NC(=S)CN=C3c2ccccc2Cl)cc1 | 140 to 145 |
| C=CCNS(=O)(=O)c1ccc(Br)cc1 | 63 to 65 |
| CC(Oc1ccc(Oc2cnc3cc(Cl)ccc3n2)cc1F)C(=O)O (stereo not given) | 132 to 138 |
| COc1ccc(-c2c(C(=O)c3ccccc3)c(CBr)nc3cc(OC)c(OC)cc23)cc1OC | 182 to 183 |

| SMILES | melting point [°C] |
| --- | --- |
| CCOC(=O)C1=C(N2CCCC2)N=C(C)C(C(=O)OCC)C1c1cccc2ccccc12 (stereo not given) | 121 |
| CCCN(c1ccncc1[N+](=O)[O-])n1ccc2ccccc21 | 84 to 86 |
| Brc1cccc(C2Cc3cnc(Nc4ccc(CCNCCN5CCCC5)cc4)nc3-c3ccccc32)c1 (stereo not given) | 83 to 85 |
| COC(=O)C1=C(C)NC(CC(=O)N2CCN(C3CCCC3)CC2)=C(C(=O)OC)C1c1c(Cl)cccc1Cl (stereo not given) | 185 to 195 |
| C=CCn1cc(C(=O)O)c(=O)c2cc(F)c(N3CCN(Cc4ccccc4)CC3)cc21 | 209 |
| Cn1cncc1C(N)(c1ccc(Cl)cc1)c1ccc2c(c1)c(CCc1cccc(Cl)c1)cc(=O)n2C (stereo not given) | 165 |
| Oc1ccc(OCCn2nc3c(n2)CCCC3)cc1 | 93 |
| CC1(CNC(=O)OC(C)(C)C)CN(C(c2ccccc2)c2ccccc2)C1 | 106 to 107 |
| CN1CCC(C2(O)c3cc(Cl)ccc3CC2(C)C)CC1 (stereo not given) | 181 to 182 |
| Nc1ccc2ccc(Oc3ccc(F)cc3)nc2n1 | 210 |
| CN=C(NC#N)C1=CC(C)(COC)Oc2ccc([N+](=O)[O-])cc21 (stereo not given) | 121 to 125 |
| CCCOc1ccccc1-c1ccc(C#N)c(=O)[nH]1 | 244 to 247 |
| CS(=O)(=O)Nc1ccc(S(=O)(=O)N2CCNc3nc4ccccc4n3CC2)cc1 | 192 to 200 |
| O=S(Cc1ccccn1)c1nc2cc3c(cc2[nH]1)CCC3 (stereo not given) | 173 to 174 |
| COC(=O)C=CC(=O)Nc1ccc(Cl)cc1C(=O)NC(C)C1CC1 (stereo not given) | 131 |
| O=S(=O)(C(/C=C/c1ccc(Br)cc1)c1c(F)c(F)c(F)c(F)c1F)C(/C=C/c1ccc(Br)cc1)c1c(F)c(F)c(F)c(F)c1F (stereo not given) | 176 to 177 |
| Cc1cccc(OC(C)(C)C(=O)NCCc2ccc(OC(C)(C)C(=O)O)cc2)c1 | 85 to 88 |
| COc1ccc2c(c1)CCC(C(=O)Cl)C2 (stereo not given) | 162 to 164 |
| CC(C)n1nc(-c2sc(N)nc2-c2ccc(F)cc2)ccc1=O | 256 to 257 |
| C=CCNc1nc(NCCC)nc2c(C)csc12 | 74 to 75 |
| C[C@@H]1CN(c2c(F)c(N)c3c(=O)c(C(=O)O)cn(C4CC4)c3c2F)C[C@H](C)N1 | 258 to 260 |
| O=C(OC(=O)c1cc2cc(O)ccc2s1)c1ccccc1 | 235 to 236 |
| CCn1cc(CN(C(=O)C2CCc3ccccc32)c2ccc(C(C)C)cc2)cn1 (stereo not given) | 83 to 84 |
| CCCCCCCC(=O)Nc1ccc(OCC(O)CNC(C)C)c(C#N)c1 (stereo not given) | 116 to 118 |

| SMILES | melting point [°C] |
| --- | --- |
| CS(=O)(=O)Nc1ccc(CCNC(=O)c2cc3cc(O)ccc3cc2O)cc1 | 176 to 178 |
| COC(=O)C(=O)N1C(=O)[C@@H](NC(=O)OC(C)(C)C)[C@@H]1OC(C)=O | 144 to 146 |
| N#Cc1c(N2CCN(C(=O)c3ccc4ccccc4n3)CC2)c2ccccc2n(Cc2ccc(F)cc2)c1=O | 144 to 157 |
| CCOC(=O)c1cc(O[C@@H]2c3c(C)ccc(C)c3C[C@H]2O)c2nc(C)n(C)c2c1 (relative stereo) | 184 |
| CCOC(=O)N1CCC(=C2c3ccsc3C=Cn3ccnc32)CC1 | 194 |
| COc1ccc(-c2cccc(C(=O)O)c2)c2c1OC(C)(C)C2 | 220 to 225 |
| CCn1cnc2c(Nc3cccc(F)c3)nc(NCCO)nc21 | 184 |
| Cc1cc(OCc2ccccc2)c(C23CC4CC(CC(C4)C2)C3)cc1Br | 138 to 139 |
| O=c1[nH]c2ccccc2nc1-c1ccc(Cl)cc1Cl | 300 |
| O=C(O)c1ncn2c1[C@@H]1CCN1C(=O)c1c(Cl)cccc1-2 | 244 to 245 |
| NC(=O)CN(N=O)N1CCOCC1 | 134 to 136 |
| CC(C)(C)c1cc(C(C)(C)C)c(Br)c(C(C)(C)C)c1 | 170 to 172 |
| CCOC(=O)[C@H](Cc1ccc(C(F)(F)F)cc1)[C@@H](O)c1ccncc1 (racemic) | 78 to 80 |
| COc1ccc(CC(=O)NC(NC(Cc2ccccc2C)=NC#N)C(C)(C)C)cc1 (stereo not given) | 199 to 201 |
| NC(=O)N1c2ccccc2CC(=NNc2ccccc2)c2ccccc21 | 220 to 221 |
| Cc1ccc(N2C(=O)c3ccccc3C2O)nn1 (stereo not given) | 232 |
| O=C(NCc1ccccn1)Nc1cc(N2CC(c3ccccc3F)CC2=O)ccn1 (stereo not given) | 173 to 174 |
| Cc1c(C=O)c2c(c(C)c1NC(=O)CC(C)(C)C)C(c1ccc(C(C)C)cc1)CO2 (stereo not given) | 177 to 178 |
| CCOC(=O)c1cnn(C)c1C(=O)Nc1ccc2nc(N3CCOCC3)nn2c1 | 234 |
| CC1(C)OC(=S)N(c2cc(C#N)ccc2F)c2ccccc21 | 250 to 251 |
| O=C(Nn1ccnc1)N1CCCCC1COCc1ccccc1Cl (stereo not given) | 91 to 92 |
| Cc1cc(C#N)ccc1-c1cccc(C=O)c1 | 86 to 86.5 |
